Test results: ChEMBL document CHEMBL1125184, “Active conformation of 1,4-dihydropyridine calcium entry blockers. Effect of size of 2-aryl substituent on rotameric equilibria and receptor binding” (J Med Chem, 1991)

Assay: Slope was measured from percentage of specific binding with time

| Slope | Compound |
| --- | --- |
| 1.3 | CCCC(=O)OC.CO/C(O)=C1/C(C)=NCCC1c1ccccc1Br (centres undefined) |
| 1.2 | CCCC(=O)OC.CO/C(O)=C1/C(C)=NCCC1c1ccccc1I (centres undefined) |
| 1.4 | CCCC(=O)OC.CO/C(O)=C1/C(C)=NCCC1c1ccccc1Cl (centres undefined) |
| 1.6 | CCCC(=O)OC.CO/C(O)=C1/C(C)=NCCC1c1ccccc1F (centres undefined) |
